Assay results: PubChem BioAssay (NCI)
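Five compound concentrations were applied to cells in 96-well plates for 48 hours; endpoints were derived by simple linear interpolation of the resulting dose-response curve. At the TGI there is no net growth.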

How the values were obtained:
Experiment in all cases: growth of human tumour cells (NCI), 48 h
[1] = system: HS 578T breast
[2] = system: SF-539 CNS
[3] = system: SW-620 colon
[4] = system: T-47D breast
[5] = system: UO-31 renal
[6] = system: RPMI-8226 leukemia

Row | SMILES | TGI [1] | TGI [2] | TGI [3] | TGI [4] | TGI [5] | TGI [6]
1 | CCc1cc2c(oc3cc(C)ccc32)c(=O)n1C | > 10 µM | > 10 µM | > 10 µM | > 10 µM | > 10 µM | –
2 | COc1ccc(N=[N+]([O-])c2ccc(OC)cc2)cc1 | > 100 µM | – | – | – | > 100 µM | > 100 µM
3 | CCC(=O)C(C(C)/C=C/CCSc1ccccc1)C(O)CCCCCC(=O)OC (stereo not drawn) | – | > 100 µM | > 100 µM | – | > 100 µM | > 100 µM
4 | CCOC(=O)/C(C#N)=C/c1ccc2c(c1)CC1(C2)Cc2cc(CC)c(C(C)O)cc2C1 (stereo not drawn) | 60.8 µM | 22.1 µM | 22.5 µM | > 100 µM | 60.8 µM | 51.6 µM
5 | C=CCN1CN(c2ccccc2)C2(CCN(CCCC3(c4ccc(F)cc4)OCCO3)CC2)C1=O | – | 23.1 µM | 36.9 µM | 40.3 µM | 22.3 µM | 34.2 µM
6 | CC1=NN=C(N)NC1=CC(Sc1ccc(Cl)cc1)c1c(O)ccc2ccccc12 (stereo not drawn) | 41.3 µM | – | > 100 µM | 58.9 µM | > 67.6 µM | > 100 µM
7 | CCOP(=O)(OCC)/C(C#N)=C/c1ccnc2ccccc12 | 69.6 µM | 49.2 µM | > 100 µM | > 100 µM | – | > 100 µM
8 | CC(C)(C)OC(=O)N(CCCCNCc1ccc2ccccc2c1)CCCNCc1ccc2ccccc2c1 | 3.3 µM | 2.97 µM | 3.54 µM | 3.44 µM | 3.17 µM | –
9 | FC1=C2CCCCCC2SC1(F)F (stereo not drawn) | > 100 µM | – | 28.9 µM | > 100 µM | > 100 µM | 84.9 µM
10 | CCCC[C@H]1CCN2C[C@@H](O)[C@@H](O)[C@H]2[C@@H]1O | > 100 µM | > 100 µM | > 100 µM | > 100 µM | > 100 µM | > 100 µM
11 | COP(=O)(OC)/C(=C\c1cn(C(c2ccccc2)(c2ccccc2)c2ccccc2)cn1)NC(C)=O | > 100 µM | > 100 µM | > 100 µM | > 100 µM | > 100 µM | –
12 | c1ccc2cc3c(cc2c1)nc1ccccn13 | > 100 µM | > 100 µM | > 100 µM | > 100 µM | > 100 µM | > 100 µM
13 | N#Cc1sc2c(c1O)c(=O)n(-c1ccccc1)c(=S)n2-c1ccccc1 | > 100 µM | – | > 100 µM | > 100 µM | > 100 µM | > 100 µM
14 | N#Cc1nc(COCCOCc2ccc(F)cc2)oc1N | – | > 100 µM | > 100 µM | > 100 µM | > 100 µM | > 100 µM
15 | O=C1Oc2cc3c(c4cccc1c24)O[C@H](c1ccccc1)[C@@H](c1ccccc1)[C@@H]3c1ccc(Cl)cc1 | > 100 µM | > 100 µM | > 100 µM | > 100 µM | – | > 100 µM
16 | CC1(C)[C@H]2Cc3cc(-c4cc5c(cn4)[C@@H]4C[C@H]([C@@H]5[C@@H]5c6cc(-c7cc8c(cn7)[C@@H]7C[C@H](C8)C7(C)C)ncc6[C@@H]6C[C@H]5C6(C)C)C4(C)C)ncc3[C@@H]1C2 | > 100 µM | – | > 100 µM | > 100 µM | > 100 µM | > 100 µM

Row | SMILES | TGI [1] | TGI [2] | TGI [3] | TGI [4] | TGI [5] | TGI [6]
17 | COc1ccccc1CNC(=O)[C@H](Cc1ccc(O)cn1)NC(C)=O | > 100 µM | > 100 µM | > 100 µM | > 100 µM | > 100 µM | > 100 µM
18 | Cc1cccc2c(=O)c3cccc([C@@H](C)C(=O)O)c3oc12 | > 100 µM | > 100 µM | > 100 µM | > 100 µM | > 100 µM | > 100 µM
19 | COc1ccc(CCNC(=O)[C@H]2CCCC[C@@H]2CCO)cc1OC | > 100 µM | > 100 µM | > 100 µM | > 100 µM | > 100 µM | > 100 µM
20 | CCN(CC)CCO/N=C1/C=C2CCC3C(CC[C@@]4(C)C3CC[C@]4(C)O)[C@@]2(C)CC1 (stereo partly drawn) | 33.7 µM | 14.9 µM | – | 68 µM | 18.9 µM | 15.2 µM
21 | COCCOC(=O)C(C)=[N+]=[N-] | > 100 µM | – | > 100 µM | > 100 µM | > 100 µM | > 100 µM
22 | COc1cc(C(=O)Oc2c(C#N)sc3c2c(=O)n(-c2ccccc2)c(=S)n3-c2ccccc2)cc(OC)c1OC | 42.5 µM | 24.1 µM | 68 µM | > 100 µM | – | 28.2 µM
23 | CCOP(=O)(OCC)/C(C#N)=C/c1c[nH]c2ccccc12 | > 100 µM | > 100 µM | > 100 µM | > 100 µM | 77.4 µM | > 100 µM
24 | C/C=C/[C@H](O[Si](C)(C)C(C)(C)C)[C@@H](O)/C=C/C(=O)OCC | 79.5 µM | 52 µM | 39.2 µM | 89.8 µM | 42.5 µM | 12.1 µM
25 | CC(C)C(NC(=O)C(Cc1ccccc1)NC(=O)[C@H]1CCC[C@H]1NC(=O)C(N)Cc1ccc(O)cc1)C(N)=O (stereo partly drawn) | > 100 µM | > 100 µM | > 100 µM | > 100 µM | > 100 µM | > 100 µM
26 | COc1cc2c(cc1OC)C(=O)N(NC1=NCCN1)C2=O | > 100 µM | > 100 µM | > 100 µM | > 100 µM | – | > 100 µM
27 | CC(=O)O[C@@H](C1C[C@@H](C)[C@H]2[C@@](O)(O1)[C@H](O)[C@@]1(C)C3=CC[C@H]4C(C)(C)[C@@H](OC5OCC(O)C(O)C5O)CC[C@@]45C[C@@]35CC[C@]21C)C(C)(C)O (stereo partly drawn) | > 100 µM | 30.3 µM | > 100 µM | 67.7 µM | 62.2 µM | 59.5 µM
28 | COc1cccc(-c2nc(-c3cnccn3)n(COCCO)n2)c1 | – | > 100 µM | > 100 µM | > 100 µM | > 100 µM | > 100 µM
29 | O=c1[nH]n(Cc2ccccc2Cl)c2ccccc12 | > 100 µM | > 100 µM | > 100 µM | – | > 100 µM | > 100 µM
30 | N#CCCN(CCN(CCC#N)C(=O)Nc1ccccc1)C(=O)Nc1ccccc1 | > 100 µM | – | > 100 µM | > 100 µM | > 100 µM | > 100 µM
31 | Cc1cc2c(cc1Cl)SC(NNc1ccc([N+](=O)[O-])cc1)=NS2(=O)=O | > 10 µM | > 10 µM | > 10 µM | > 10 µM | > 10 µM | > 10 µM
32 | CC1(C)O[C@@H](CBr)C[C@H](C[C@H]2C[C@@H](O)C[C@@H](CCOCc3ccccc3)O2)O1 | 47.7 µM | – | > 100 µM | 38.3 µM | 43.5 µM | 97 µM
